One series deals with HeLa cells. In words: Mammalian cell viability assay. Type of series: cell-based, Human. The conditions noted are these: for cell death in microphotographs: 72 h. The protocol: Human cervical carcinoma-derived HeLa cells were maintained in routine culture with weekly splitting. […] All reagents were purchased from Life Technologies. Twenty-four hours before drug treatment, cells were trypsinized, resuspended in medium and counted on a Z2 Beckman Coulter counter (Beckman Coulter) in order to obtain a confluent 12-wells plate. […] Cell viability data were derived from two independent experiments and were normalized to NT sample at 24 h. NT samples were subjected only to DMSO solvent. Microphotographs were obtained through an inverted microscope (Nikon) equipped with phase contrast and dark field illumination.

For a further series, the system named is C. elegans. The series can be described thus: Survival of uninfected C. elegans treated with the compounds. The conditions noted are these: no infection.
In series [1] the test system is Burkholderia mallei AHL-synthase. The conditions noted are these: cited from earlier work.

Data on three compounds can be found in publication PMC5007513, “Discovery of new diketopiperazines inhibiting Burkholderia cenocepacia quorum sensing in vitro and in vivo” (Scientific Reports, 2016).

Regarding `O=C1CNC(=O)C(c2cc(OCc3ccccc3)ccc2OCc2ccccc2)N1` (stereo not shown) [6a], the “significant effects (p < 0.05) on cell growth” value with HeLa cells (HeLa, 10, 25, 50 and 100 μM, 24 h and 48 h) is on record as “observed only after 48 h treatment at a concentration of 100 μM”. In addition, the “cell death in microphotographs” value with HeLa cells (HeLa) is on record as “did not induce cell death”. Besides, the C. elegans survival in the series on C. elegans (1 μM, 24 h) was 98 ± 6%; in the series with C. elegans (1 μM, 48 h), 91 ± 12%; in the series with C. elegans (5 μM, 24 h) it was 99 ± 2%; with C. elegans (5 μM, 48 h), 98 ± 4%; in the series with C. elegans (10 μM, 24 h), 91 ± 8%; in the series with C. elegans (10 μM, 48 h) it was 86 ± 10%. Further, the C. elegans survival in the series with C. elegans (25 μM, 24 h) was 91 ± 4%; with C. elegans (25 μM, 48 h), 91 ± 6%.
On to `O=C1C=CC(=O)C(C2NC(=O)C(Cc3ccccc3)NC2=O)=C1` (stereo not shown) [8b], for which the cell viability reduction entry with HeLa cells (HeLa, 50 μM, 48 h) is “approximately 50%”. Further, the “reduction in cell viability” value in the series with HeLa cells (HeLa, 100 μM, 24 h) is ~20%. Besides, the “cell death in microphotographs” value in the series on HeLa cells (HeLa, 50 and 100 μM) is “confirmed cell death”. Moreover, the C. elegans survival in the series with C. elegans (1 μM, 24 h) is given as 98 ± 5%; with C. elegans (1 μM, 48 h), 97 ± 6%; in the series on C. elegans (5 μM, 24 h), 97 ± 7%; with C. elegans (5 μM, 48 h) it was 95 ± 7%; in the series on C. elegans (10 μM, 24 h), 99 ± 2%; with C. elegans (10 μM, 48 h), 95 ± 10%. In addition, the C. elegans survival in the series with C. elegans (25 μM, 24 h) is on record as 98 ± 5%; in the series on C. elegans (25 μM, 48 h), 96 ± 5%.
On to `CN1CCN(C(c2ccccn2)c2c(-c3ccccc3)n(O)c3ccccc23)CC1` (stereo not shown) [compound 1 from Christensen et al., reference compound], for which, in series [1], the “activity against AHL-synthase” value is “very active”.
